In patent publication US20250017914A1, “6-AZA-QUINOLINE DERIVATIVES AND RELATED USES” (Black Diamond Therapeutics, Inc., priority 2021, published 2025) one finds GI50 data, which are given here for 26 compounds.

In this experiment the target is T1, BaF3 BRAF-KIAA1549 fusion cells (Homo sapiens, UniProt P15056).
T1 construct: The BRAF-KIAA1549 fusion mutant was subcloned into pMXs-IRES-Blasticidin (RTV-016, Cell Biolabs, San Diego, CA); No tag given; Q9HCM3 (UPF0606 protein KIAA1549)
Description: BaF3 BRAF-KIAA1549 fusion cell proliferation assay (CellTiterGlo, 96 hours). The following applies: Table A1. The format is cell-based. The protocol:
Retroviral Production: The BRAF-KIAA1549 fusion mutant was subcloned into pMXs-IRES-Blasticidin (RTV-016, Cell Biolabs, San Diego, CA). Retrovirus was produced by transfection of HEK 293T cells with the retroviral BRAF mutant expression vector pMXs-IRES-Blasticidin (RTV-016, Cell Biolabs), pCMV-Gag-Pol vector and pCMV-VSV-G-Envelope vector. Briefly, HEK 293T cells were plated in Poly-D-lysine coated 6-well plate (2.5×10^5 cells per well) and incubated overnight. The next day, retroviral plasmids (1 μg of BRAF-KIAA fusion mutant, 0.32 μg of pCMV-Gag-Pol and 0.165 μg pCMV-VSV-G) were mixed in 300 μL of Optimem (31985, Life Technologies). The mixture was incubated at room temperature for 5 minutes and then added to Optimem containing transfection reagent Lipofectamine (11668, Invitrogen) and incubated for 20 minutes. The mixture was then added dropwise to HEK 293T cells. The next day the medium was replaced with fresh culture medium and retrovirus was harvested at 24 hours.
Generation of BRAF-KIAA1549 fusion stable cell line: BaF3 cells were plated in V-bottom 96 well plate (COSTAR #3894) in 80 μL of RPMI/10% FBS and 0.01 ng/mL mouse IL-3, supplemented with 8 μg/mL polybrene (4×10^4 cells/well). Cells were transduced with 20 μL of BRAF-KIAA1549 fusion viral supernatant by centrifuging for 30 minutes at 1000 rpm. Cells were placed in a 37° C. incubator overnight. Next day 100 μL of RPMI/10% FBS and 0.01 ng/mL mouse IL-3 was added. After 24 hours, 100 μL of cells were transferred to a 24 well plate containing 900 μL of RPM/10% FBS and 15 μg/mL Blasticidin. Contents of the 24 well plate were sampled for cell viability via CellTiterGlo (Promega) over a 2-week period.
Assay for cell proliferation: BaF3 BRAF-KIAA1549 fusion cells were resuspended at 1.5×10^5 c/mL in RPMI containing 10% Heat Inactivated FBS, 1% L-glutamine and dispensed in duplicate (7×10^4 c/well) into 384 well plates. To determine the effect of compound on cell proliferation, BaF3 BRAF-KIAA1549 fusion cells were incubated for 96 hours in the presence of vehicle control (DMSO) or compound at varying concentrations. Inhibition of cell growth was determined by luminescent quantification (Envision by Perkin Elmer) of intracellular ATP content using CellTiterGlo (Promega), according to the protocol provided by the manufacturer. To determine the IC50 values, the vehicle-treated cells were normalized as viable cells and analyzed using the CDD Vault, Collaborative Drug Discovery, Burlingame, CA (the Levenberg-Marquardt algorithm; Levenberg, K., […]; Marquardt, D., 1963).
Tables A1 and A2 assign each compound a code for potency in the BaF3 BRAF-KIAA1549 fusion cell proliferation assay: A, B, C, or D. According to the code, A represents an IC50 value <20 nM; B represents an IC50 value ≥20 nM and <100 nM; C represents an IC50 value ≥100 nM and <500 nM; and D represents an IC50 value ≥500 nM.
In general terms: In ATP-based viability assays light output follows the ATP content of the culture.

SMILES strings stand for the structures.

In general, GI50 refers to the concentration that inhibits growth by half. A higher GI50 goes with less potent growth inhibition.

T1 sequence (P15056 whole entry, change not shown, the tested form may be a part): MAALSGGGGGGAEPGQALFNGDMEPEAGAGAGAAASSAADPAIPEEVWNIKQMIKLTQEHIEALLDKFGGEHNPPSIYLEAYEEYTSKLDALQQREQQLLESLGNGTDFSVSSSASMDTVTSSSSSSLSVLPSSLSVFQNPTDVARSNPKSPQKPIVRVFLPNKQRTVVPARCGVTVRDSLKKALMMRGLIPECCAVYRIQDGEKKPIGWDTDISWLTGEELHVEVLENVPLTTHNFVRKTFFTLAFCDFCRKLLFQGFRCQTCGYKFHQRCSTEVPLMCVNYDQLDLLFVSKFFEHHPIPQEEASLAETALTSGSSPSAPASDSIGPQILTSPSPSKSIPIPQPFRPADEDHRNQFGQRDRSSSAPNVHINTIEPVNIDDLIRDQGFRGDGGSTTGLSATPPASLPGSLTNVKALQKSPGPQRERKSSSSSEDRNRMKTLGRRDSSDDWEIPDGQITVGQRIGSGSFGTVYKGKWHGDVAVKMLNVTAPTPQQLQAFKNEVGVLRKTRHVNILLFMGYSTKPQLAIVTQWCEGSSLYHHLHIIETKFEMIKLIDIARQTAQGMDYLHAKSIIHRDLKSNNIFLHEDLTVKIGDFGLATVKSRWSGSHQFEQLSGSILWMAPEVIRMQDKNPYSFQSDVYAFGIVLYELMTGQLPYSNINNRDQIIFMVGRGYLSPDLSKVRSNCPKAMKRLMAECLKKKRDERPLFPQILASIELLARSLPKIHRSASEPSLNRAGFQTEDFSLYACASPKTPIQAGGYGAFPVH

`CNc1cc2ncc(-c3cc(NC(=O)c4cc(C(C)(C)C#N)ccn4)cc(F)c3Cl)cc2cn1` [Compound 44, N-(4-chloro-3-fluoro-5-(7-(methylamino)-1,6-naphthyridin-3-yl)phenyl)-4-(2-cyanopropan-2-yl)picolinamide] gave a GI50 of 20 to 100 nM. The value for `CNc1cc2ncc(-c3ccc(F)c(NC(=O)c4cc(C(C)(C)C#N)ccn4)c3)cc2cn1` [Compound 45, 4-(2-Cyanopropan-2-yl)-N-(2-fluoro-5-(7-(methylamino)-1,6-naphthyridin-3-yl)phenyl)picolinamide] was 100 to 500 nM; that for `CNc1cc2ncc(-c3cc(F)c(F)c(NC(=O)c4cc(C(C)(C)C#N)ccn4)c3)cc2cn1` [Compound 46, 4-(2-Cyanopropan-2-yl)-N-(2,3-difluoro-5-(7-(methylamino)-1,6-naphthyridin-3-yl)phenyl)picolinamide] was 100 to 500 nM.

As to `CNc1cc2ncc(-c3cc(F)cc(NC(=O)c4cc(C(C)(C)C#N)ccn4)c3)cc2cn1` [Compound 47, 4-(2-Cyanopropan-2-yl)-N-(3-fluoro-5-(7-(methylamino)-1,6-naphthyridin-3-yl)phenyl)picolinamide], the GI50 was 100 to 500 nM. `CNc1cc2ncc(-c3cc(NC(=O)c4cc(C(C)(C)C#N)ccn4)cc(Cl)c3C)cc2cn1` [Compound 48, N-(3-Chloro-4-methyl-5-(7-(methylamino)-1,6-naphthyridin-3-yl)phenyl)-4-(2-cyanopropan-2-yl)picolinamide]: the GI50 is ≥ 500 nM.

Regarding `CNc1cc2ncc(-c3cc(NC(=O)c4cc(C(C)(C)C#N)ccn4)cnn3)cc2cn1` [Compound 49, 4-(2-Cyanopropan-2-yl)-N-(6-(7-(methylamino)-1,6-naphthyridin-3-yl)pyridazin-4-yl)picolinamide], the GI50 is < 20 nM. The value for `CNc1cc2ncc(-c3cc(NC(=O)c4cc(C(C)(C)C#N)ccn4)c(Cl)cc3C)cc2cn1` [Compound 50, N-(2-Chloro-4-methyl-5-(7-(methylamino)-1,6-naphthyridin-3-yl)phenyl)-4-(2-cyanopropan-2-yl)picolinamide] was 100 to 500 nM; that for `CNc1cc2ncc(-c3cc(NC(=O)c4cc(C(C)(C)C#N)ccn4)c(F)c(F)c3C)cc2cn1` [Compound 51, 4-(2-Cyanopropan-2-yl)-N-(2,3-difluoro-4-methyl-5-(7-(methylamino)-1,6-naphthyridin-3-yl)phenyl)picolinamide] was ≥ 500 nM; that for `CNc1cc2ncc(-c3cc(NC(=O)c4nccc(C(F)(F)F)c4F)cnc3C)cc2cn1` [Compound 52, 3-Fluoro-N-(6-methyl-5-(7-(methylamino)-1,6-naphthyridin-3-yl)pyridin-3-yl)-4-(trifluoromethyl)picolinamide] was < 20 nM. The value for `CNc1cc2ncc(-c3cc(C(=O)Nc4cc(C(C)(C)C#N)ccn4)ccc3C)cc2cn1` [Compound 53, N-(4-(2-cyanopropan-2-yl)pyridin-2-yl)-4-methyl-3-(7-(methylamino)-1,6-naphthyridin-3-yl)benzamide] was 20 to 100 nM; that for `CNc1cc2ncc(-c3cc(NC(=O)c4ccnc(C(C)(C)C#N)c4)cnc3C)cc2cn1` [Compound 55, 2-(2-Cyanopropan-2-yl)-N-(6-methyl-5-(7-(methylamino)-1,6-naphthyridin-3-yl)pyridin-3-yl)isonicotinamide] was < 20 nM. The value for `CNc1cc2ncc(-c3cc(NC(=O)c4ccnc(C(C)(C)C#N)c4)ccc3C)cc2cn1` [Compound 56, 2-(2-Cyanopropan-2-yl)-N-(4-methyl-3-(7-(methylamino)-1,6-naphthyridin-3-yl)phenyl)isonicotinamide] was 20 to 100 nM. `CNc1cc2ncc(-c3cc(NC(=O)c4ccnc(C(C)C)c4)cnc3C)cc2cn1` [Compound 57, 2-Isopropyl-N-(6-methyl-5-(7-(methylamino)-1,6-naphthyridin-3-yl)pyridin-3-yl)isonicotinamide]: the GI50 is < 20 nM. In the case of `CNc1cc2ncc(-c3cc(NC(=O)c4ccnc(C(C)(C)C)c4)cnc3C)cc2cn1` [Compound 58, 2-(tert-Butyl)-N-(6-methyl-5-(7-(methylamino)-1,6-naphthyridin-3-yl)pyridin-3-yl)isonicotinamide] it was 20 to 100 nM; in that of `CNc1cc2ncc(-c3cc(C(=O)Nc4cc(C(C)(C)C#N)ccn4)cnc3C)cc2cn1` [Compound 59, N-(4-(2-Cyanopropan-2-yl)pyridin-2-yl)-6-methyl-5-(7-(methylamino)-1,6-naphthyridin-3-yl)nicotinamide], 20 to 100 nM. The value for `CNc1cc2ncc(-c3cc(NC(=O)c4cc(C(F)(F)F)c(F)cn4)cnc3C)cc2cn1` [Compound 60, 5-Fluoro-N-(6-methyl-5-(7-(methylamino)-1,6-naphthyridin-3-yl)pyridin-3-yl)-4-(trifluoromethyl)picolinamide] was < 20 nM; that for `CNc1cc2ncc(-c3cc(NC(=N)c4cc(C(F)(F)F)ccn4)ccc3C)cc2cn1` [Compound 61, N-(4-Methyl-3-(7-(methylamino)-1,6-naphthyridin-3-yl)phenyl)-4-(trifluoromethyl)picolinimidamide] was 100 to 500 nM; that for `CNc1cc2ncc(-c3cc(NC(=O)CN4CCC[C@H](C(F)(F)F)C4)cnc3C)cc2cn1` [Compound 62, (S)—N-(6-Methyl-5-(7-(methylamino)-1,6-naphthyridin-3-yl)pyridin-3-yl)-2-(3-(trifluoromethyl)piperidin-1-yl)acetamide] was 20 to 100 nM. `CNc1cc2ncc(-c3cc(NC(=O)CN4CCC[C@H](C(F)(F)F)C4)ccc3C)cc2cn1` [Compound 63, (S)—N-(4-Methyl-3-(7-(methylamino)-1,6-naphthyridin-3-yl)phenyl)-2-(3-(trifluoromethyl)piperidin-1-yl)acetamide] had a GI50 of 20 to 100 nM. The value for `CNc1cc2ncc(-c3cc(NC(=N)c4cc(C(F)(F)F)ccn4)cnc3C)cc2cn1` [Compound 64, N-(6-Methyl-5-(7-(methylamino)-1,6-naphthyridin-3-yl)pyridin-3-yl)-4-(trifluoromethyl)picolinimidamide] was ≥ 500 nM; that for `CNc1cc2ncc(-c3cc(NC(=O)c4cc(C(C)(C)F)ccn4)cnc3C)cc2cn1` [Compound 65, 4-(2-Fluoropropan-2-yl)-N-(6-methyl-5-(7-(methylamino)-1,6-naphthyridin-3-yl)pyridin-3-yl)picolinamide] was 20 to 100 nM; that for `CNc1cc2ncc(-c3cc(NC(=O)c4cc(C(F)F)c(F)cn4)cnc3C)cc2cn1` [Compound 66, 4-(Difluoromethyl)-5-fluoro-N-(6-methyl-5-(7-(methylamino)-1,6-naphthyridin-3-yl)pyridin-3-yl)picolinamide] was 20 to 100 nM. The value for `CNc1cc2ncc(-c3cc(NC(=O)c4cc(C(F)(F)F)c(OCCO)cn4)ccc3C)cc2cn1` [Compound 71, 5-(2-hydroxyethoxy)-N-(4-methyl-3-(7-(methylamino)-1,6-naphthyridin-3-yl)phenyl)-4-(trifluoromethyl)picolinamide] was 20 to 100 nM.

As for `CNc1cc2ncc(-c3cc(NC(=O)c4ccc(OC(F)F)cn4)cnc3C)cc2cn1` [Compound 72, 5-(Difluoromethoxy)-N-(6-methyl-5-(7-(methylamino)-1,6-naphthyridin-3-yl)pyridin-3-yl)picolinamide], the GI50 was ≥ 500 nM.

Take `CNc1cc2ncc(-c3cc(NC(=O)c4cc(C(F)(F)F)ccn4)nnc3C)cc2cn1` [Compound 75, N-(6-methyl-5-(7-(methylamino)-1,6-naphthyridin-3-yl)pyridazin-3-yl)-4-(trifluoromethyl)picolinamide]: the GI50 lay within 20 to 100 nM. `CNc1cc2ncc(-c3cc(NC(=O)c4cc(C(C)(C)C#N)ccn4)nnc3C)cc2cn1` [Compound 77, 4-(2-cyanopropan-2-yl)-N-(6-methyl-5-(7-(methylamino)-1,6-naphthyridin-3-yl)pyridazin-3-yl)picolinamide]: the GI50 was in the range of 20 to 100 nM.
